Activity calls are given as the source filed them. No cut-off for these calls is given here. Peptide text beside a SMILES is read from it.
How the values were obtained:
Jurkat [1] = test: (§1) Activity on rosetting of jurkat T-cells with SRBC at the concentration of 10e-5 M; assay type: functional; conditions: Homo sapiens
Jurkat [2] = test: (§2) Activity on rosetting of jurkat T-cells with SRBC at the concentration of 10e-10 M; assay type: functional; conditions: Homo sapiens
Jurkat [3] = test: (§3) Activity on rosetting of jurkat T-cells with SRBC at the concentration of 10e-11 M; assay type: functional, Homo sapiens
Jurkat [4] = test: Activity on rosetting of jurkat T-cells with SRBC at the concentration of 10e-11 M; Not Significant; assay type: functional, cell-based; conditions: Homo sapiens
Jurkat [5] = test: (§4) Activity on rosetting of jurkat T-cells with SRBC at the concentration of 10e-6 M; assay type: functional; conditions: Homo sapiens
Jurkat [6] = test: (§5) Activity on rosetting of jurkat T-cells with SRBC at the concentration of 10e-4 M; assay type: functional; conditions: Homo sapiens
Jurkat [7] = test: (§6) Activity on rosetting of jurkat T-cells with SRBC at the concentration of 10e-12 M; assay type: functional, Homo sapiens
Jurkat [8] = test: (§7) Activity on rosetting of jurkat T-cells with SRBC at the concentration of 10e-7 M; assay type: functional; conditions: Homo sapiens
Jurkat [9] = test: Activity on rosetting of jurkat T-cells with SRBC at the concentration of 0 M; assay type: functional, Homo sapiens
Jurkat [10] = test: as §7; assay type: functional, Homo sapiens
Jurkat [11] = test: Activity on rosetting of jurkat T-cells with SRBC at the concentration of 10e-12 M; Not Significant; assay type: functional, cell-based; conditions: Homo sapiens
Jurkat [12] = test: (§8) Activity on rosetting of jurkat T-cells with SRBC at the concentration of 10e-8 M; assay type: functional, Homo sapiens
Jurkat [13] = test: as §1; assay type: functional, Homo sapiens
Jurkat [14] = test: (§9) Activity on rosetting of jurkat T-cells with SRBC at the concentration of 10e-9 M; assay type: functional, Homo sapiens
Jurkat [15] = test: as §8; assay type: functional; conditions: Homo sapiens
Jurkat [16] = test: as §5; assay type: functional, Homo sapiens
Jurkat [17] = test: as §9; assay type: functional; conditions: Homo sapiens
Jurkat [18] = test: as §4; assay type: functional, Homo sapiens
Jurkat [19] = test: Activity on rosetting of jurkat T-cells with SRBC at the concentration of 10e-10 M; Not Determined; assay type: functional, Homo sapiens
Jurkat [20] = test: as §3; assay type: functional; conditions: Homo sapiens
Jurkat [21] = test: Activity on rosetting of jurkat T-cells with SRBC at the concentration of 10e-15 M; Not significant; assay type: functional, cell-based; conditions: Homo sapiens
Jurkat [22] = test: (§10) Activity on rosetting of jurkat T-cells with SRBC at the concentration of 10e-13 M; assay type: functional, Homo sapiens
Jurkat [23] = test: as §6; assay type: functional; conditions: Homo sapiens
Jurkat [24] = test: as §10; assay type: functional; conditions: Homo sapiens
Jurkat [25] = test: (§11) Activity on rosetting of jurkat T-cells with SRBC at the concentration of 10e-14 M; assay type: functional; conditions: Homo sapiens
Jurkat [26] = test: as §2; assay type: functional, Homo sapiens
Jurkat [27] = test: as §11; assay type: functional, Homo sapiens
Jurkat [28] = test: Activity on rosetting of jurkat T-cells with SRBC at the concentration of 10e-15 M; assay type: functional, Homo sapiens

SMILES	inhibition at 10 µM (Jurkat [1]) [%]	inhibition at 0.0001 µM (Jurkat [2]) [%]	No. of rosettes/100 Jurkat T cells (Jurkat [3])	inhibition at 1 µM (Jurkat [5]) [%]	inhibition at 100 µM (Jurkat [6]) [%]	No. of rosettes/100 Jurkat T cells (Jurkat [7])	inhibition at 0.1 µM (Jurkat [8]) [%]	No. of rosettes/100 Jurkat T cells (Jurkat [9])	No. of rosettes/100 Jurkat T cells (Jurkat [10])	No. of rosettes/100 Jurkat T cells (Jurkat [12])	No. of rosettes/100 Jurkat T cells (Jurkat [13])	No. of rosettes/100 Jurkat T cells (Jurkat [14])	inhibition at 0.01 µM (Jurkat [15]) [%]	No. of rosettes/100 Jurkat T cells (Jurkat [16])	inhibition at 0.001 µM (Jurkat [17]) [%]	No. of rosettes/100 Jurkat T cells (Jurkat [18])	further results
CC(=O)N[C@@H](CO)C(=O)N[C@@H](CC(=O)O)C(=O)N[C@@H](CCCCN)C(=O)O (Ac-Ser-Asp-Lys-OH)	40	10	62	39	44	59	27	63	45	48	37	51	23	35	18	38	inhibition (Jurkat [4]): inactive; inhibition (Jurkat [11]): inactive; No. of rosettes/100 Jurkat T cells (Jurkat [19]): 56
NCCCC[C@H](NC(=O)[C@H](CC(=O)O)NC(=O)[C@@H](N)CO)C(=O)O (H-Ser-Asp-Lys-OH)	28	32	40	22	40	44	22	63	49	40	45	43	36	38	32	50	inhibition at 10 pM (Jurkat [20]): 36%; inhibition (Jurkat [21]): inactive; No. of rosettes/100 Jurkat T cells (Jurkat [22]): 51; inhibition at 1 pM (Jurkat [23]): 30%; inhibition at 100 fM (Jurkat [24]): 19%; inhibition at 10 fM (Jurkat [25]): 14%; No. of rosettes/100 Jurkat T cells (Jurkat [26]): 43; No. of rosettes/100 Jurkat T cells (Jurkat [27]): 55; No. of rosettes/100 Jurkat T cells (Jurkat [28]): 63
